We go through 18 compounds from patent US9499538B2, “Estrogen receptor modulators and uses thereof” (Seragon Pharmaceuticals, Inc., priority 2012, dated 2016).

pIC50: −log10 of the molar value. A value given as a limit tells only on which side of the number the result lay.

One assay deals with T1, ER-α in MCF-7 cells (Homo sapiens, UniProt P03372).
T1 construct: endogenous in cells; host or cells: MCF-7
T1 sequence (P03372 1-595): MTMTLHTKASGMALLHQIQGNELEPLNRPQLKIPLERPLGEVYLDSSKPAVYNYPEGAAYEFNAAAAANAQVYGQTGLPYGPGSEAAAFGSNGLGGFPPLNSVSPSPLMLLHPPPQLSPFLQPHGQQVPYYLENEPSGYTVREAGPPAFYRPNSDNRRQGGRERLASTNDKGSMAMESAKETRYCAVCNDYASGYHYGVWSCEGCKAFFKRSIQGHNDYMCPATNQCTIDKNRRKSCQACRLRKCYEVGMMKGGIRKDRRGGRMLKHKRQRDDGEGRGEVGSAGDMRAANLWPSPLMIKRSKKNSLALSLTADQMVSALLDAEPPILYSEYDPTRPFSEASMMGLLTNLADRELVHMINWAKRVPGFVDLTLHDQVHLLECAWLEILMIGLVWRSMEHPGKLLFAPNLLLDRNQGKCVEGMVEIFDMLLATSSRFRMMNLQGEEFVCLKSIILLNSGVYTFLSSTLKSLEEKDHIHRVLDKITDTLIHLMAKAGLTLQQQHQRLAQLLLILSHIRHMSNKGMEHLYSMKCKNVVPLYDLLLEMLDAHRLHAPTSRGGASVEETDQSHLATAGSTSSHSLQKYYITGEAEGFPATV
Briefly: Breast Cancer Cell ER-α In Cell Western Assay (SP1). To be noted: 4 or 24 hr post compound addition; for Emax: MCF7, SP1 antibody, read-out: ER-α In Cell Western Assay (SP1) Max Response; for DC50: SP1 antibody, read-out: ER-α In Cell Western Assay (SP1) IC50. Format: cell-based. The essentials:
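ER-α levels quantified by in-cell western: SP1 signal normalised to DRAQ5 DNA stain, relative to untreated cells (% ER). Compounds at 0.3–0.000003 μM final, 11-point semilog series, 4 or 24 h exposure of MCF-7 cells grown in charcoal-stripped serum.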

A further assay deals with MCF-7 cells. Nature of the assay: Breast Cancer Cell Viability Assays (MCF-7, CellTiter-Glo). To be noted: 5 days' compound exposure; for pIC50: Homo sapiens, MCF7, 120 h. Format: cell-based. The essentials:
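Percent viability, background-subtracted against untreated wells, was taken from CellTiter-Glo luminescence after 5 days' exposure of MCF-7 cells. Compounds were tested at eleven semilog concentrations, final 0.3–0.000003 μM, in RPMI containing 10% FBS.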

In the case of `CC/C(=C(/c1ccc(/C=C/C(=O)O)cc1)c1cccc2[nH]nc(F)c12)c1cnc(OC)cc1C` [Example 139, (E)-3-(4-((E)-1-(3-Fluoro-1H-indazol-4-yl)-2-(6-methoxy-4-methylpyridin-3-yl)but-1-en-1-yl)phenyl)acrylic acid], at ER-α in MCF-7 cells, the Emax was at least 40% and the DC50 was at most 0.1 µM. Further, in the assay with MCF-7 cells, the “MCF7 Viability Assay Max Response” value is “++ (++ = a single % value ≧ 40%)” and the pIC50 (as a rule, the IC50 on a negative log10 scale, so that one unit is a factor of ten) was at least 7.00.
On the same counts, the results for `COc1cc(C)c(/C(=C(/c2ccc3[nH]nc(F)c3c2)c2ccc(/C=C/C(=O)O)nc2C)C2CCC2)cn1` [Example 140, (E)-3-(5-((Z)-2-Cyclobutyl-1-(3-fluoro-1H-indazol-5-yl)-2-(6-methoxy-4-methylpyridin-3-yl)vinyl)-6-methylpyridin-2-yl)acrylic acid] are at least 40%, at most 0.1 µM, “++ (++ = a single % value ≧ 40%)” and at least 7.00.
For the compound `O=C(O)/C=C/c1ccc(/C(=C(\c2ccccn2)C2CCC2)c2ccc3[nH]nc(F)c3c2)cc1` [Example 141, (E)-3-(4-((E)-2-Cyclobutyl-1-(3-fluoro-1H-indazol-5-yl)-2-(pyridin-2-yl)vinyl)phenyl)acrylic acid], at ER-α in MCF-7 cells, the Emax was at least 40% and the DC50 is at most 0.1 µM. For the same compound, in the assay with MCF-7 cells, the “MCF7 Viability Assay Max Response” value is recorded as “++ (++ = a single % value ≧ 40%)” and the pIC50 was at least 7.00.
The matching figures for `O=C(O)/C=C/c1ccc(/C(=C(\c2ncccc2F)C2CCC2)c2ccc3[nH]nc(F)c3c2)cc1` [Example 142, (E)-3-(4-((E)-2-Cyclobutyl-1-(3-fluoro-1H-indazol-5-yl)-2-(3-fluoropyridin-2-yl)vinyl)phenyl)acrylic acid]: at least 40%, at most 0.1 µM, “++ (++ = a single % value ≧ 40%)” and at least 7.00.
For `O=C(O)/C=C/c1ccc(/C(=C(\c2ncccc2Cl)C2CCC2)c2ccc3[nH]nc(F)c3c2)cc1` [Example 143, (E)-3-(4-((E)-2-(3-Chloropyridin-2-yl)-2-cyclobutyl-1-(3-fluoro-1H-indazol-5-yl)vinyl)phenyl)acrylic acid], at ER-α in MCF-7 cells, the Emax is at least 40% and the DC50 was at most 0.1 µM. Further, in the assay on MCF-7 cells, the “MCF7 Viability Assay Max Response” value is on record as “++ (++ = a single % value ≧ 40%)” and the pIC50 is at least 7.00.
`Cc1cccnc1/C(=C(\c1ccc(/C=C/C(=O)O)cc1)c1ccc2[nH]nc(F)c2c1)C1CCC1` [Example 144, (E)-3-(4-((E)-2-Cyclobutyl-1-(3-fluoro-1H-indazol-5-yl)-2-(3-methylpyridin-2-yl)vinyl)phenyl)acrylic acid]: at ER-α in MCF-7 cells, the Emax is at least 40% and the DC50 was at most 0.1 µM. In the assay on MCF-7 cells, the “MCF7 Viability Assay Max Response” value is recorded as “++ (++ = a single % value ≧ 40%)” and the pIC50 is at least 7.00.
`O=C(O)/C=C/c1ccc(/C(=C(\c2ncccc2C(F)(F)F)C2CCC2)c2ccc3[nH]nc(F)c3c2)cc1` [Example 145, (E)-3-(4-((E)-2-Cyclobutyl-1-(3-fluoro-1H-indazol-5-yl)-2-(3-(trifluoromethyl)pyridin-2-yl)vinyl)phenyl)acrylic acid]: at ER-α in MCF-7 cells, the Emax is at least 40% and the DC50 is at most 0.1 µM. Moreover, in the assay with MCF-7 cells, the “MCF7 Viability Assay Max Response” value is recorded as “++ (++ = a single % value ≧ 40%)” and the pIC50 was at least 7.00.
On the same counts, the results for `O=C(O)/C=C/c1ccc(/C(=C(\c2ncc(Cl)cc2Cl)C2CCC2)c2ccc3[nH]nc(F)c3c2)cc1` [Example 146, (E)-3-(4-((E)-2-Cyclobutyl-2-(3,5-dichloropyridin-2-yl)-1-(3-fluoro-1H-indazol-5-yl)vinyl)phenyl)acrylic acid] are at least 40%, at most 0.1 µM, “++ (++ = a single % value ≧ 40%)” and at least 7.00.
On the same counts, the results for `COc1cccc(/C(=C(\c2ccc(/C=C/C(=O)O)cc2)c2ccc3[nH]nc(F)c3c2)C2CCC2)n1` [Example 147, (E)-3-(4-((E)-2-Cyclobutyl-1-(3-fluoro-1H-indazol-5-yl)-2-(6-methoxypyridin-2-yl)vinyl)phenyl)acrylic acid] are at least 40%, at most 0.1 µM, “++ (++ = a single % value ≧ 40%)” and at least 7.00.
On the same counts, the results for `N#Cc1n[nH]c2ccc(/C(=C(/c3ccccc3)C3CCC3)c3ccc(/C=C/C(=O)O)cc3)cc12` [Example 148, (E)-3-(4-((E)-1-(3-Cyano-1H-indazol-5-yl)-2-cyclobutyl-2-phenylvinyl)phenyl)acrylic acid] are at least 40%, at most 0.1 µM, “++ (++ = a single % value ≧ 40%)” and at least 7.00.
Regarding `Cc1sccc1/C(=C(\c1ccc(/C=C/C(=O)O)cc1)c1ccc2[nH]nc(F)c2c1)C1CCC1` [Example 149, (E)-3-(4-((E)-2-Cyclobutyl-1-(3-fluoro-1H-indazol-5-yl)-2-(2-methylthiophen-3-yl)vinyl)phenyl)acrylic acid], on ER-α in MCF-7 cells, the Emax was at least 40% and the DC50 was at most 0.1 µM. For the same compound, in the assay on MCF-7 cells, the “MCF7 Viability Assay Max Response” value is “++ (++ = a single % value ≧ 40%)” and the pIC50 was at least 7.00.
On the same counts, the results for `Cc1cc(/C(=C(\c2ccc(/C=C/C(=O)O)cc2)c2ccc3[nH]nc(F)c3c2)C2CCC2)c(C)s1` [Example 150, (E)-3-(4-((E)-2-Cyclobutyl-2-(2,5-dimethylthiophen-3-yl)-1-(3-fluoro-1H-indazol-5-yl)vinyl)phenyl)acrylic acid] are at least 40%, at most 0.1 µM, “++ (++ = a single % value ≧ 40%)” and at least 7.00.
As for `CC/C(=C(/c1ccc(/C=C/C(=O)O)cc1)c1ccc2[nH]ncc2c1)c1ccc(C#N)cc1F` [Example 151, (E)-3-(4-((E)-2-(4-Cyano-2-fluorophenyl)-1-(1H-indazol-5-yl)but-1-en-1-yl)phenyl)acrylic acid], at ER-α in MCF-7 cells, the Emax is at least 40% and the DC50 is at most 0.1 µM. In the assay on MCF-7 cells, the “MCF7 Viability Assay Max Response” value was “++ (++ = a single % value ≧ 40%)” and the negative logarithm of the IC50 (pIC50) was at least 7.00.
Consider `O=C(O)/C=C/c1ccc(/C(=C(\c2ccc(F)cc2Cl)C2CC2)c2ccc3[nH]nc(F)c3c2)cc1` [Example 152, (E)-3-(4-((E)-2-(2-Chloro-4-fluorophenyl)-2-cyclopropyl-1-(3-fluoro-1H-indazol-5-yl)vinyl)phenyl)acrylic acid], for which, at ER-α in MCF-7 cells, the Emax was at least 40% and the DC50 is at most 0.1 µM. Moreover, in the assay on MCF-7 cells, the “MCF7 Viability Assay Max Response” value is recorded as “++ (++ = a single % value ≧ 40%)” and the pIC50 was at least 7.00.
On the same counts, the results for `O=C(O)/C=C/c1ccc(/C(=C(\c2ccccc2Cl)C2CC2)c2ccc3[nH]nc(F)c3c2)cc1` [Example 153, (E)-3-(4-((E)-2-(2-Chlorophenyl)-2-cyclopropyl-1-(3-fluoro-1H-indazol-5-yl)vinyl)phenyl)acrylic acid] are at least 40%, at most 0.1 µM, “++ (++ = a single % value ≧ 40%)” and at least 7.00.
The matching figures for `O=C(O)/C=C/c1ccc(/C(=C(\c2ccccc2F)C2CC2)c2ccc3[nH]nc(F)c3c2)cc1` [Example 154, (E)-3-(4-((E)-2-Cyclopropyl-1-(3-fluoro-1H-indazol-5-yl)-2-(2-fluorophenyl)vinyl)phenyl)acrylic acid]: at least 40%, at most 0.1 µM, “++ (++ = a single % value ≧ 40%)” and at least 7.00.
Regarding `N#Cc1cc(F)ccc1/C(=C(\c1ccc(/C=C/C(=O)O)cc1)c1ccc2[nH]nc(F)c2c1)C1CC1` [Example 155, (E)-3-(4-((E)-2-(2-Cyano-4-fluorophenyl)-2-cyclopropyl-1-(3-fluoro-1H-indazol-5-yl)vinyl)phenyl)acrylic acid], at ER-α in MCF-7 cells, the Emax was at least 40% and the DC50 is at most 0.1 µM. Besides, in the assay on MCF-7 cells, the “MCF7 Viability Assay Max Response” value is “++ (++ = a single % value ≧ 40%)” and the negative logarithm of the IC50 (pIC50) was at least 7.00.
For `N#Cc1ccc(/C(=C(\c2ccc(/C=C/C(=O)O)cc2)c2ccc3[nH]nc(F)c3c2)C2CC2)c(F)c1` [Example 156, (E)-3-(4-((E)-2-(4-Cyano-2-fluorophenyl)-2-cyclopropyl-1-(3-fluoro-1H-indazol-5-yl)vinyl)phenyl)acrylic acid], at ER-α in MCF-7 cells, the Emax is at least 40% and the DC50 was at most 0.1 µM. Also, in the assay on MCF-7 cells, the “MCF7 Viability Assay Max Response” value is listed as “++ (++ = a single % value ≧ 40%)” and the pIC50 is at least 7.00.
